Laboratory results published in patent US11001586B2, “Alkyl pyrrolopyrimidine analogs and methods of making and using same” (The University of North Carolina at Chapel Hill, priority 2016, dated 2021).

Key:
[1] = biological target: Mer tyrosine kinase (Homo sapiens (Human), UniProt Q12866); assay: Evaluation of activity against Mer tyrosine kinase; type: biochemical
[2] = biological target: Tyro3 tyrosine kinase (Homo sapiens (Human), UniProt Q06418); assay: Evaluation of activity against Tyro3 tyrosine kinase; type: biochemical
Sequence of Tyro3 tyrosine kinase (Q06418 41-890): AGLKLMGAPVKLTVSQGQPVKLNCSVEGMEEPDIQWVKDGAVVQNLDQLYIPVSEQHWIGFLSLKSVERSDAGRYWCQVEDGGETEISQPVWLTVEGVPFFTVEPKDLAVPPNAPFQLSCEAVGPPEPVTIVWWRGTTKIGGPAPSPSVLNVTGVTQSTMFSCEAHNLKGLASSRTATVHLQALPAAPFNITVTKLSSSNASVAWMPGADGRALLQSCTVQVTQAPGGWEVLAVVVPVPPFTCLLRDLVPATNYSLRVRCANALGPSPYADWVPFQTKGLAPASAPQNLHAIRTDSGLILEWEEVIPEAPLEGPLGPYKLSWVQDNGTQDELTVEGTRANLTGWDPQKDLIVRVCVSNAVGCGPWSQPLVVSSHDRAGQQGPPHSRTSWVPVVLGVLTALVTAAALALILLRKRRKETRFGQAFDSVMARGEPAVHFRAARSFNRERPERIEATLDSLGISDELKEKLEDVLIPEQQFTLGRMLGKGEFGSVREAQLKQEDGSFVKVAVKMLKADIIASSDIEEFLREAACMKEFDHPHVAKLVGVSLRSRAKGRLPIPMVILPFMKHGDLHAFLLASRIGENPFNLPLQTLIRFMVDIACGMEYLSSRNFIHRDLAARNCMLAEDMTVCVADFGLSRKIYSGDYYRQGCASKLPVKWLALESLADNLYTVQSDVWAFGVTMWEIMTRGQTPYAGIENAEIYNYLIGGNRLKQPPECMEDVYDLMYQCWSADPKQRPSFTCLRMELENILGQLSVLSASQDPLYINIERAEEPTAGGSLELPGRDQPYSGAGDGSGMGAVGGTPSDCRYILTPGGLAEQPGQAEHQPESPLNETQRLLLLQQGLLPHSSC

Sequence of Mer tyrosine kinase (Q12866 21-999): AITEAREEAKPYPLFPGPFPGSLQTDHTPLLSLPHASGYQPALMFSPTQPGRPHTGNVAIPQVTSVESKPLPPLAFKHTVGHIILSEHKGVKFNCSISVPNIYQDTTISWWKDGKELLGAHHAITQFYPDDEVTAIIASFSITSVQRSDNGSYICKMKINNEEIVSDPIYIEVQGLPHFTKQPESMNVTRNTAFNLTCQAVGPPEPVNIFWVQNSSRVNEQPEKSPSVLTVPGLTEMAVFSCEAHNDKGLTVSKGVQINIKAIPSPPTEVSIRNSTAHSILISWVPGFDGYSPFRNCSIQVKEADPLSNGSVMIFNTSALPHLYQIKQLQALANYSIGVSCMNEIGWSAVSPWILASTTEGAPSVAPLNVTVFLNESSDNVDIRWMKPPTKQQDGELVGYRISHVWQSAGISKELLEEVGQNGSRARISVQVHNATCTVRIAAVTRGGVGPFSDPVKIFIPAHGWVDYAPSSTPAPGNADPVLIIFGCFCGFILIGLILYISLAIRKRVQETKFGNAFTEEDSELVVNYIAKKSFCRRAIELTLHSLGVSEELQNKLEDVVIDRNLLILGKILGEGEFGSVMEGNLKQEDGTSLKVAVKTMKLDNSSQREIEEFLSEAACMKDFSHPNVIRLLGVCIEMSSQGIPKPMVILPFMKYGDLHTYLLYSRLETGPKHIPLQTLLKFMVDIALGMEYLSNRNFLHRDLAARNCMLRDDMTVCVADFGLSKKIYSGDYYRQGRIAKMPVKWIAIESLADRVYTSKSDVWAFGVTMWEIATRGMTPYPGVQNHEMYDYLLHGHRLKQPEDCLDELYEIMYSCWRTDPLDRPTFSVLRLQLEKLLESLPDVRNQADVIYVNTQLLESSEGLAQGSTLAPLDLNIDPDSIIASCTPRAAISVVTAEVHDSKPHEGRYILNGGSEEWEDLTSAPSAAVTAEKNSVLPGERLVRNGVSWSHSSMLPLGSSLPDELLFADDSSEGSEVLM

Structure (SMILES) | IC50 [1] [nM] | IC50 [2] [nM]
Cc1cc(C(=O)N2CCC(c3cn([C@H]4CC[C@H](O)CC4)c4nc(NCCC5CC5)ncc34)CC2)cc(C)n1 [compound 72, (4-(2-((2-cyclopropylethyl)amino)-7-((1R,4R)-4-hydroxycyclohexyl)-7H-pyrrolo[2,3-d]pyrimidin-5-yl)piperidin-1-yl)(2,6-dimethylpyridin-4-yl)methanone] | < 10 | 100 to 1000
CCC[C@H](C)Nc1ncc2c(C3CCN(C(=O)c4ccc(CN(C)C)cc4)CC3)cn([C@H]3CC[C@H](O)CC3)c2n1 [compound 87, (4-((dimethylamino)methyl)phenyl)(4-(7-((1R,4S)-4-hydroxycyclohexyl)-2-(((S)-pentan-2-yl)amino)-7H-pyrrolo[2,3-d]pyrimidin-5-yl)piperidin-1-yl)methanone] | < 10 | 10 to 100
CCC[C@H](C)Nc1ncc2c(C3CCN(C(=O)[C@H]4CCCNC4)CC3)cn([C@H]3CC[C@H](O)CC3)c2n1 [compound 24, (4-(7-((1R,4S)-4-hydroxycyclohexyl)-2-(((S)-pentan-2-yl)amino)-7H-pyrrolo[2,3-d]pyrimidin-5-yl)piperidin-1-yl)((S)-piperidin-3-yl)methanone] | < 10 | 10 to 100
CCC[C@H](C)Nc1ncc2c(C3CCN(S(=O)(=O)CCOC)CC3)cn([C@H]3CC[C@H](O)CC3)c2n1 [compound 4, (1S,4R)-4-(5-(1-((2-methoxyethyl)sulfonyl)piperidin-4-yl)-2-(((S)-pentan-2-yl)amino)-7H-pyrrolo[2,3-d]pyrimidin-7-yl)cyclohexan-1-ol] | < 10 | 100 to 1000
CCC[C@H](C)Nc1ncc2c(C3CCN(C(=O)C4CNC4)CC3)cn([C@H]3CC[C@H](O)CC3)c2n1 [compound 13, Azetidin-3-yl(4-(7-((1R,4S)-4-hydroxycyclohexyl)-2-(((S)-pentan-2-yl)amino)-7H-pyrrolo[2,3-d]pyrimidin-5-yl)piperidin-1-yl)methanone] | < 10 | 10 to 100
CCC[C@H](C)Nc1ncc2c(C3CCN(C(=O)C4CCCN4C)CC3)cn([C@H]3CC[C@H](O)CC3)c2n1 (stereo partly drawn) [compound 16, 7-((1R,4S)-4-hydroxycyclohexyl)-5-(1-(methylprolyl)piperidin-4-yl)-2-(((S)-pentan-2-yl)amino)-7H-pyrrolo[2,3-d]pyrimidine] | < 10 | 10 to 100
CCC[C@H](C)Nc1ncc2c(C3CCN(C(=O)c4cc(OC)cc(OC)c4)CC3)cn([C@H]3CC[C@H](O)CC3)c2n1 [compound 80, (3,5-dimethoxyphenyl)(4-(7-((1R,4S)-4-hydroxycyclohexyl)-2-(((S)-pentan-2-yl)amino)-7H-pyrrolo[2,3-d]pyrimidin-5-yl)piperidin-1-yl)methanone] | < 10 | 100 to 1000
CCC[C@H](C)Nc1ncc2c(C3CCN(C(=O)c4ccccc4)CC3)cn([C@H]3CC[C@H](O)CC3)c2n1 [compound 30, (4-(7-((1R,4S)-4-hydroxycyclohexyl)-2-(((S)-pentan-2-yl)amino)-7H-pyrrolo[2,3-d]pyrimidin-5-yl)piperidin-1-yl)(phenyl)methanone] | < 10 | 10 to 100
CCC[C@H](C)Nc1ncc2c(C3CCN(C(=O)c4cc(C)nc(C)c4)CC3)cn([C@H]3CC[C@H](C(F)F)CC3)c2n1 [compound 88, (4-(7-((1R,4S)-4-(difluoromethyl)cyclohexyl)-2-(((S)-pentan-2-yl)amino)-7H-pyrrolo[2,3-d]pyrimidin-5-yl)piperidin-1-yl)(2,6-dimethylpyridin-4-yl)methanone] | < 10 | 100 to 1000
CCC[C@H](C)Nc1ncc2c(C3CCN(C(=O)[C@@H]4CCCNC4)CC3)cn([C@H]3CC[C@H](O)CC3)c2n1 [compound 23, (4-(7-((1R,4S)-4-hydroxycyclohexyl)-2-(((S)-pentan-2-yl)amino)-7H-pyrrolo[2,3-d]pyrimidin-5-yl)piperidin-1-yl)((R)-piperidin-3-yl)methanone] | < 10 | 10 to 100
CCC[C@H](C)Nc1ncc2c(C3CCN(C(=O)c4ccc(Cl)cc4)CC3)cn([C@H]3CC[C@H](O)CC3)c2n1 [compound 84, (4-chlorophenyl)(4-(7-((1R,4S)-4-hydroxycyclohexyl)-2-(((S)-pentan-2-yl)amino)-7H-pyrrolo[2,3-d]pyrimidin-5-yl)piperidin-1-yl)methanone] | < 10 | 100 to 1000
CCC[C@H](C)Nc1ncc2c(C3CCN(C4CCN(C)CC4)CC3)cn([C@H]3CC[C@H](O)CC3)c2n1 [compound 52, (1S,4R)-4-(5-(1′-methyl-[1,4′-bipiperidin]-4-yl)-2-(((S)-pentan-2-yl)amino)-7H-pyrrolo[2,3-d]pyrimidin-7-yl)cyclohexan-1-ol] | < 10 | 10 to 100
CCC[C@H](C)Nc1ncc2c(C3CCN(C(=O)c4cc(C)nc(C)c4)CC3)cn([C@H]3CC[C@H](O)CC3)c2n1 [compound 34, (2,6-dimethylpyridin-4-yl)(4-(7-((1R,4S)-4-hydroxycyclohexyl)-2-(((S)-pentan-2-yl)amino)-7H-pyrrolo[2,3-d]pyrimidin-5-yl)piperidin-1-yl)methanone] | < 10 | 10 to 100
CCC[C@H](C)Nc1ncc2c(C3CCN(C(=O)c4ccc(F)cc4)CC3)cn([C@H]3CC[C@H](O)CC3)c2n1 [compound 89, (4-fluorophenyl)(4-(7-((1R,4S)-4-hydroxycyclohexyl)-2-(((S)-pentan-2-yl)amino)-7H-pyrrolo[2,3-d]pyrimidin-5-yl)piperidin-1-yl)methanone] | < 10 | 100 to 1000
CCC[C@H](C)Nc1ncc2c(C3CCN(S(=O)(=O)C4CCNCC4)CC3)cn([C@H]3CC[C@H](O)CC3)c2n1 [compound 3, (1S,4R)-4-(2-(((S)-pentan-2-yl)amino)-5-(1-(piperidin-4-ylsulfonyl)piperidin-4-yl)-7H-pyrrolo[2,3-d]pyrimidin-7-yl)cyclohexan-1-ol] | < 10 | 10 to 100
Cc1cc(C(=O)N2CCC(c3cn([C@H]4CC[C@H](O)CC4)c4nc(NCCCC(F)(F)F)ncc34)CC2)cc(C)n1 [compound 101, (2,6-dimethylpyridin-4-yl)(4-(7-((1r,4r)-4-hydroxycyclohexyl)-2-((4,4,4-trifluorobutyl)amino)-7H-pyrrolo[2,3-d]pyrimidin-5-yl)piperidin-1-yl)methanone] | < 10 | 1000 to 30000
CCC[C@H](C)Nc1ncc2c(C3CCN(C(=O)c4ccc[nH]4)CC3)cn([C@H]3CC[C@H](O)CC3)c2n1 [compound 60, (4-(7-((1R,4S)-4-hydroxycyclohexyl)-2-(((S)-pentan-2-yl)amino)-7H-pyrrolo[2,3-d]pyrimidin-5-yl)piperidin-1-yl)(1H-pyrrol-2-yl)methanone] | < 10 | 100 to 1000
Cc1cc(C(=O)N2CCC(c3cn([C@H]4CC[C@H](O)CC4)c4nc(NCCCCO)ncc34)CC2)cc(C)n1 [compound 100, (2,6-dimethylpyridin-4-yl)(4-(2-((4-hydroxybutyl)amino)-7-((1r,4r)-4-hydroxycyclohexyl)-7H-pyrrolo[2,3-d]pyrimidin-5-yl)piperidin-1-yl)methanone] | < 10 | 1000 to 30000
CCC[C@H](C)Nc1ncc2c(C3CCN(C(=O)C4CCNC4)CC3)cn([C@H]3CC[C@H](O)CC3)c2n1 (stereo partly drawn) [compound 17, (4-(7-((1R,4S)-4-hydroxycyclohexyl)-2-(((S)-pentan-2-yl)amino)-7H-pyrrolo[2,3-d]pyrimidin-5-yl)piperidin-1-yl)(pyrrolidin-3-yl)methanone] | < 10 | 10 to 100
Cc1cc(C(=O)N2CCC(c3cn([C@H]4CC[C@H](O)CC4)c4nc(N[C@@H](C)c5ccc(F)cc5)ncc34)CC2)cc(C)n1 [compound 75, (2,6-dimethylpyridin-4-yl)(4-(2-(((S)-1-(4-fluorophenyl)ethyl)amino)-7-((1R,4S)-4-hydroxycyclohexyl)-7H-pyrrolo[2,3-d]pyrimidin-5-yl)piperidin-1-yl)methanone] | < 10 | 10 to 100
CCC[C@H](C)Nc1ncc2c(C3CCN(C(=O)C4CCN(C)C4)CC3)cn([C@H]3CC[C@H](O)CC3)c2n1 (stereo partly drawn) [compound 18, (4-(7-((1R,4S)-4-hydroxycyclohexyl)-2-(((S)-pentan-2-yl)amino)-7H-pyrrolo[2,3-d]pyrimidin-5-yl)piperidin-1-yl)(1-methylpyrrolidin-3-yl)methanone] | < 10 | 10 to 100
CCC[C@H](C)Nc1ncc2c(C3CCN(C(=O)c4cc(C)nc(C)c4)CC3)cn([C@H]3CC[C@H](N)CC3)c2n1 [compound 95, (4-(7-((1R,4S)-4-aminocyclohexyl)-2-(((S)-pentan-2-yl)amino)-7H-pyrrolo[2,3-d]pyrimidin-5-yl)piperidin-1-yl)(2,6-dimethylpyridin-4-yl)methanone] | < 10 | 10 to 100
CC[C@H]1C[C@@H]1Nc1ncc2c(C3CCN(C(=O)c4ccncc4)CC3)cn([C@H]3CC[C@H](O)CC3)c2n1 [compound 42, (4-(2-(((1S,2S)-2-ethylcyclopropyl)amino)-7-((1R,4S)-4-hydroxycyclohexyl)-7H-pyrrolo[2,3-d]pyrimidin-5-yl)piperidin-1-yl)(pyridin-4-yl)methanone] | < 10 | 100 to 1000
